By IC50 is commonly meant the midpoint of a concentration-inhibition curve. By inhibition is commonly meant the change of the read-out against control, counted positive when it falls.

Structures are written as SMILES. Values after ≈ are worked out from the molar mass of the structure shown.

The values below come from ChEMBL document CHEMBL3044669, “Molecular modeling, structure activity relationship and immunomodulatory properties of some lupeol derivatives” (Med Chem Res, 2013).

Experiment [1] concerns PBL. The experiment can be described thus: Antiproliferative activity against PHA-induced Homo sapiens (human) peripheral blood lymphocytes assessed as inhibition of [3H]-thymidine incorporation after 72 hr by beta-scintillation counting analysis. It counts as functional, cell-based. For orientation: Dividing cells build labelled thymidine or BrdU into new DNA.
Experiment [2] concerns Neutrophil. The experiment can be described thus: Immunomodulatory activity in neutrophils assessed as decrease in oxidative burst after 30 min by luminol-enhanced chemiluminescence assay. The conditions noted are these: for IC50: 0.5 h. It counts as functional, cell-based.
Experiment [3] relates to PBL. The experiment can be described thus: Antiproliferative activity against PHA-induced Homo sapiens (human) peripheral blood lymphocytes assessed as inhibition of [3H]-thymidine incorporation at 50 ug/ml after 72 hr by beta-scintillation counting analysis relative to control. Format: functional.
In experiment [4] the test system is Neutrophil. The experiment can be described thus: Immunomodulatory activity in neutrophils assessed as decrease in oxidative burst at 50 ug/mL after 30 min by luminol-enhanced chemiluminescence assay relative to control. It counts as functional. Details: scale not given: the % may be the effect or the level left.
The test system of experiment [5] is PBL. The experiment can be described thus: Stimulation of PHA-induced Homo sapiens (human) peripheral blood lymphocytes proliferation assessed as increase in [3H]-thymidine incorporation at 50 ug/ml after 72 hr by beta-scintillation counting analysis relative to control. Format: functional.

Regarding `C=C(C)[C@@H]1CC[C@]2(C(=O)OCC)CC[C@]3(C)[C@H](CC[C@@H]4[C@@]5(C)CC[C@H](O)C(C)(C)[C@@H]5CC[C@]43C)[C@@H]12` [ETHYL BETULINATE], the IC50 is 12.9 µg/mL (≈ 26.6 µM) in the experiment with PBL [1] and 3.85 µg/mL in the experiment on Neutrophil [2].

Consider `C=C(C)[C@@H]1CC[C@]2(C)CC[C@]3(C)[C@H](CC[C@@H]4[C@@]5(C)CC[C@H](OC(C)=O)C(C)(C)[C@@H]5CC[C@]43C)[C@@H]12` [LUPENYL ACETATE], for which the inhibition at 50 µg/mL in the experiment on PBL [3] worked out at 38.9%. Moreover, the Activity in the experiment on Neutrophil [4] was 41.12%.

On to `C=C(C)[C@@H]1CC[C@]2(C(=O)O)CC[C@]3(C)[C@H](CC[C@@H]4[C@@]5(C)CC[C@H](O)C(C)(C)[C@@H]5CC[C@]43C)[C@@H]12` [BETULINIC ACID], for which the Activity in the experiment with PBL [5] is 38.2%. Further, in the experiment on Neutrophil [2], the Activity result was “Dose-dependent effect” and the IC50 was 11.1 µg/mL.

On to `C=C(C)[C@@H]1CC[C@]2(C)CC[C@]3(C)[C@H](CC[C@@H]4[C@@]5(C)CC[C@H](O)C(C)(C)[C@@H]5CC[C@]43C)[C@@H]12` [LUPEOL], for which, in the experiment with PBL [1], the IC50 is 13.2 µg/mL (≈ 30.8 µM) and the inhibition entry was “Dose-dependent effect”. Besides, in the experiment with Neutrophil [2], the Activity entry is “Dose-dependent effect” and the IC50 turned out to be 11.3 µg/mL.
